Tested on: C57BL/KsJ-db/db mice
Assay: Blood sugar and triglycerides lowering activity in db/db mice (in vivo)
Details: male C57BL/KsJ-db/db mice, 10 mg/kg/day, oral gavage daily for 6 days; for Maximum reduction in blood glucose level (%): plasma glucose, glucose oxidase method; for Triglyceride lowering (%): plasma triglycerides
Excerpt: Mutation in colonies of laboratory animals and different sensitivities to dietary regimens have made the development of animal models with non-insulin dependent diabetes associated with obesity and insulin resistance possible. Genetic models such as db/db and ob/ob (See Diabetes, (1982) 31(1) : 1- 6) in mice and fa/fa and zucker rats have been developed by the various laboratories for understanding the pathophysiology of disease and testing the efficacy of new antidiabetic compounds (Diabetes, (1983) 32: 830-838; Annu. Rep. Sankyo Res. Lab. (1994) 46 : 1-57). The homozygous animals, C57 BL/KsJ-db/db mice developed by Jackson Laboratory, US, are obese, hyperglycemic, hyperinsulinemic and insulin resistant (J. Clin. Invest., (1990) 85 : 962-967), whereas heterozygous are lean and normoglycemic. In db/db model, mouse progressively develops insulinopenia with age, a feature commonly observed in late stages of human type II diabetes when blood sugar levels are insufficiently controlled. The state of pancreas and its course vary according to the models. Since this model resembles that of type II diabetes mellitus, the compounds of the present invention were tested for blood sugar and triglycerides lowering activities.
Male C57BL/KsJ-db/db mice of 8 to 14 weeks age, having body weight range of 35 to 60 grams, procured from the Jackson Laboraotory, USA, were used in the experiment The mice were provided with standard feed (National Institute of Nutrition, Hyderabad, India) and acidified water, ad libitum. The animals having more than 300 mg / dl blood sugar were used for testing. The number of animals in each group was 4.
The random blood sugar and triglyceride levels were measured by collecting blood (100 µl) through orbital sinus, using heparinised capillary in tubes containing EDTA which was centrifuged to obtain plasma. The plasma glucose and triglycerides levels were measured spectrometrically, by glucose oxidase and glycerol-3-PO4 oxidase/peroxidase enzyme (Dr. Reddy's Lab. Diagnostic Division Kits, Hyderabad, India) methods respectively. On 6th day the blood samples were collected one hour after administration of test compounds / vehicle for assessing the biological activity.
Test compounds were suspended on 0.25 % carboxymethyl cellulose and administered to test group at a dose of 10 mg to 100 mg / kg through oral gavage daily for 6 days. The control group received vehicle (dose 10 ml / kg).

Structure (SMILES): Cc1nn(CCOc2ccc(CC3SC(=O)NC3=O)cc2)c(=O)c2ccccc12 (stereo not shown) [Example 6, 5-[4-[2-[4-Methyl-1-oxo-1,2-dihydro-phthalazin-2-yl]ethoxy]phenylmethyl] thiazolidin-2,4-dione]
- Maximum reduction in blood glucose level (%): 61%
- Triglyceride lowering (%): 40%

Structure (SMILES): O=C1NC(=O)C(=Cc2ccc(OCCN3OCc4ccccc4C3=O)cc2)S1 [Example 11, 5-[4-[2-[4-Oxo-3,4-dihydro-1H-2,3-benzoxazin-3-yl]ethoxy]phenylmethylene]thiazolidin-2,4-dione]
- Maximum reduction in blood glucose level (%): 37%
- Triglyceride lowering (%): 60%

From patent publication EP0971917B1, “THIAZOLIDINEDIONE AND OXAZOLIDINEDIONE DERIVATIVES HAVING ANTIDIABETIC, HYPOLIPIDAEMIC AND ANTIHYPERTENSIVE PROPERTIES” (DR. REDDY'S RESEARCH FOUNDATION, priority 1997, dated 1998)
